Two molecules from patent US12180207B2 (ARRAY BIOPHARMA INC., priority 2018, dated 2024) can be followed below.

Assay [1] deals with dephosphorylated FGFR1 (SEQ ID NO: 1, amino acids 458 to 765) (Homo sapiens (Human), UniProt P11362). The assay is described as follows: FGFR enzyme binding assay (HTRF tracer displacement), FGFR1. As to conditions: 5 nM dephosphorylated FGFR1, average of multiple determinations if made. The method in brief:
(§1)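 Kinase and tracer were incubated with compound for 60 minutes at 22° C. Tracer displacement was then measured by HTRF, and results were expressed as POC with 1 μM control inhibitor defining full displacement.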

For the next assay, the target named is dephosphorylated FGFR2 (Homo sapiens (Human), UniProt P21802). As to the kind of experiment: FGFR enzyme binding assay (HTRF tracer displacement), FGFR2. As to conditions: 5 nM dephosphorylated FGFR2, average of multiple determinations if made. The method in brief:
as §1

The target in assay [2] is phosphorylated FGFR3 (SEQ ID NO: 5, amino acids 449 to 759) (Homo sapiens (Human), UniProt P22607). As to the kind of experiment: FGFR enzyme binding assay (HTRF tracer displacement), FGFR3. The conditions noted are these: 5 nM phosphorylated FGFR3, average of multiple determinations if made. A digest of the protocol:
as §1

Assay [3] has as its target recombinant human FGFR1 catalytic domain (amino acids 308-731) (Homo sapiens (Human), UniProt P11362). As to the kind of experiment: FGFR1 enzyme activity assay (LanthaScreen TR-FRET). The class given is biochemical. The conditions noted are these: 20 min incubation at 22° C., average of multiple determinations if made, read-out: FGFR1 Enz FRET IC50. The method in brief:
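His-tagged FGFR1 kinase domain with 100 nM Alexa Fluor 647-poly-GT peptide and ATP in pH 7.5 HEPES/MgCl2 buffer with 2% DMSO, 20 min at 22 °C. Quenched with EDTA plus 2 nM Eu-PY20 antibody and read after 60 min. IC50 comes from a 4-parameter fit of percent of control.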

The target of assay [4] is T1, HEK-293 cells transfected with dox-inducible human wild type FGFR3 (Homo sapiens (Human), UniProt P22607). As to the kind of experiment: FGFR3 pERK cell assay. The class given is cell-based. The conditions noted are these: HEK-293 dox-inducible FGFR3, 1 hour compound, 100 ng/ml FGF-acidic; maximum concentration 5 μM. The method in brief: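 Doxycycline-induced cells preincubated 1 h at 37 °C with compound (1:3 dilutions, top 5 μM final), then stimulated 5 min with 100 ng/ml FGF-acidic. Lysate phospho-ERK1/2 measured by MSD sandwich assay; IC50 at 50 POC from 4-parameter fit, normalised to no-compound and control-compound wells.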

Assay [5] deals with T1, HEK-293 cells transfected with dox-inducible human wild type FGFR3. The assay is described as follows: FGFR3 pFGFR cell assay (ELISA). The class given is cell-based. The conditions noted are these: HEK-293 dox-inducible FGFR3, 1 hour compound, 100 ng/ml FGF-acidic. The method in brief: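 Doxycycline-induced (1 μg/ml) HEK-293 cells expressing wild-type human FGFR3, treated 1 h with compound (1:3 series, top final 5 μM), then stimulated 5 min with 100 ng/ml FGF-acidic. Phospho-FGFR3 measured by ELISA (total FGFR3 capture, phosphotyrosine detection, OD 450 nm); IC50 from 4-parameter fit of POC values.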

T1 sequence (P22607 23-806): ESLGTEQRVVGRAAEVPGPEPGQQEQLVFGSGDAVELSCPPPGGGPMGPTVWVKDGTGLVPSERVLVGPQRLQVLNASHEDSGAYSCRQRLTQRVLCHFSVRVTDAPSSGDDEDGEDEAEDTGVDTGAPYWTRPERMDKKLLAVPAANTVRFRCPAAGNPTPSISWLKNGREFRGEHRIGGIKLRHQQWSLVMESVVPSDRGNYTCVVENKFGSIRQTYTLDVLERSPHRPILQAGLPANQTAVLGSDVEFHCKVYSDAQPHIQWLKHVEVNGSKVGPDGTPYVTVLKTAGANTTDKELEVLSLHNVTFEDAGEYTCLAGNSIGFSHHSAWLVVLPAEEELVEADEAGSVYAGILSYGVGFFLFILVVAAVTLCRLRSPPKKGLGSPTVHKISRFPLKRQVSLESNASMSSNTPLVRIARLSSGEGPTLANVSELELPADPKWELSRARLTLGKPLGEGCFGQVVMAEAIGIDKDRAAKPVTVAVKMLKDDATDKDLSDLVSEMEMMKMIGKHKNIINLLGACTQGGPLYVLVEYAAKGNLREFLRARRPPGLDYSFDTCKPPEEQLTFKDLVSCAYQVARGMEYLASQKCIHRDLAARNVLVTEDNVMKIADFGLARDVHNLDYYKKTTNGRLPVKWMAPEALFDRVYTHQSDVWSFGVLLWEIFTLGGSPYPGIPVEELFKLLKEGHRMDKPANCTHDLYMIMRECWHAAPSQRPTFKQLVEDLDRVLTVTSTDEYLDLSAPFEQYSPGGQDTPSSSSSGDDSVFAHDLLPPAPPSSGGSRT
recombinant human FGFR1 catalytic domain (amino acids 308-731), sequence (P11362 other isoform, or with tags, fused parts or gaps): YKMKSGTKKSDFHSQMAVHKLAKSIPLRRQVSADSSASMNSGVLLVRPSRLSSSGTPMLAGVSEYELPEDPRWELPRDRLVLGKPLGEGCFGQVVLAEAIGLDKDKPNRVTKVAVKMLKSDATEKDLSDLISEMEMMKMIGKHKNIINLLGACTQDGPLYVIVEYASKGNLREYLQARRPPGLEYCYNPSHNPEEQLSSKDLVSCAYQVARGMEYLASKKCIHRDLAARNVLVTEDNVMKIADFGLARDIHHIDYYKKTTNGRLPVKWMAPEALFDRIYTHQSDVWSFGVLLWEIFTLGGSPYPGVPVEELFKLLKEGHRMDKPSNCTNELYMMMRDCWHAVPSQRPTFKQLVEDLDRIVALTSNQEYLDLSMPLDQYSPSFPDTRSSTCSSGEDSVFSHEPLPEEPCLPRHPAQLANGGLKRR
dephosphorylated FGFR1 (SEQ ID NO: 1, amino acids 458 to 765), sequence (P11362 458-765): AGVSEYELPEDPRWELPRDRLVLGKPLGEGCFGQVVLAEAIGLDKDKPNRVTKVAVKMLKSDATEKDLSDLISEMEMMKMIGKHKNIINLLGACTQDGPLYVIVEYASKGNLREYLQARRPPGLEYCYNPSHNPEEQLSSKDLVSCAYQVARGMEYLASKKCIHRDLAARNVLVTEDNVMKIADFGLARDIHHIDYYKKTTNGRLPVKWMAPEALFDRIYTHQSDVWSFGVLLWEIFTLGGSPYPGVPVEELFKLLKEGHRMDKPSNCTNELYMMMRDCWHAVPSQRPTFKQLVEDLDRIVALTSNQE
dephosphorylated FGFR2, sequence (P21802 22-821): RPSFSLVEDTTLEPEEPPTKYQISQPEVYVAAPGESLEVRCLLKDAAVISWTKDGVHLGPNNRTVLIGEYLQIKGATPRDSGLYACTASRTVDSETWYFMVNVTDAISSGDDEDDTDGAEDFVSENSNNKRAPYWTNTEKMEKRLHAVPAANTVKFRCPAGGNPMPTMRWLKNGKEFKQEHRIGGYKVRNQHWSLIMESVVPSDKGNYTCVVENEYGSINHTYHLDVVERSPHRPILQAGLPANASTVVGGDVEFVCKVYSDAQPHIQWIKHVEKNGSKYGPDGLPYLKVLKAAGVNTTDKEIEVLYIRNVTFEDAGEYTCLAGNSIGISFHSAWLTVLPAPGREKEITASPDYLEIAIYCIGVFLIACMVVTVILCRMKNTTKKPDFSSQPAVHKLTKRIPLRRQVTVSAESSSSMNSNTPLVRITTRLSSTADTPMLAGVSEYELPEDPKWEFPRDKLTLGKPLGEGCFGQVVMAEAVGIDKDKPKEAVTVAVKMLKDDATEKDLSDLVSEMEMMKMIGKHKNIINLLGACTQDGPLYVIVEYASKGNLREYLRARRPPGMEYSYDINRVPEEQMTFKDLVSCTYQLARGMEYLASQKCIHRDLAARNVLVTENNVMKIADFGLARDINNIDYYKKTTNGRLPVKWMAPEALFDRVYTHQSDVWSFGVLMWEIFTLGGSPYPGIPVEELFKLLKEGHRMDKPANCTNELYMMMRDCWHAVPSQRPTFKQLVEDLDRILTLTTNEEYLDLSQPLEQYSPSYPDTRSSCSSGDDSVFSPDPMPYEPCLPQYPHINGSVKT
phosphorylated FGFR3 (SEQ ID NO: 5, amino acids 449 to 759), sequence (P22607 449-759): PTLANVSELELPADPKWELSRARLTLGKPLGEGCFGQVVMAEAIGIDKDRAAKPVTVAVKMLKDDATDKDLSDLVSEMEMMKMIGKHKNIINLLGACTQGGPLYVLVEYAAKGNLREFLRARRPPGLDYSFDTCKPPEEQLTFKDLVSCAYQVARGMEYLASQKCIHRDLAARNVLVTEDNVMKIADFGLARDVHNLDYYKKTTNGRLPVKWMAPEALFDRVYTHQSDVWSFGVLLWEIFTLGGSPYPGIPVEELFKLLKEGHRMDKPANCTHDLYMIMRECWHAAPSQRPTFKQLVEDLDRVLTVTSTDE

On to `C=CC(=O)N1CC(F)(C(=O)N2CCC(n3cc(-c4cc(OC)c5c(Cl)cnn5c4)cn3)CC2)C1` [Example 121, 1-(3-(4-(4-(3-chloro-4-methoxypyrazolo[1,5-a]pyridin-6-yl)-1H-pyrazol-1-yl)piperidine-1-carbonyl)-3-fluoroazetidin-1-yl)prop-2-en-1-one], for which the half-maximal inhibitory concentration (IC50) in assay [1] amounted to 0.114 µM; at dephosphorylated FGFR2 it was 0.012 µM; in assay [2], 0.003 µM; in assay [3], 0.028 µM; in assay [4], 0.025 µM; in assay [5], 0.031 µM.
As to `COc1cc(-c2cnn(C3CCN(C(=O)C4CN(C(=O)/C=C/CN5CCOCC5)C4)CC3)c2)cn2ncc(C#N)c12` [Example 184, (E)-4-methoxy-6-(1-(1-(1-(4-morpholinobut-2-enoyl)azetidine-3-carbonyl)piperidin-4-yl)-1H-pyrazol-4-yl)pyrazolo[1,5-a]pyridine-3-carbonitrile], the IC50 in assay [1] turned out to be 0.052 µM; at dephosphorylated FGFR2 it was 0.02 µM; in assay [2], 0.006 µM; in assay [3], 0.015 µM; in assay [4] it was 2.83 µM.
